This is an account of results in ChEMBL document CHEMBL1133412, “Rational design, synthesis and structure-activity relationships of antitumor (E)-2-benzylidene-1-tetralones and (E)-2-benzylidene-1-indanones” (Bioorg Med Chem Lett, 2000).

In test [1] the test system is K562. Put plainly: Cytotoxicity evaluated against K562 tumor cell lines; Significant activity. The test is classed as functional, cell-based. Conditions: Homo sapiens.
For test [2], the system named is WIL2. Put plainly: Cytotoxicity evaluated against WIL2 tumor cell lines; Significant activity. The test is classed as functional, cell-based. The following applies: Homo sapiens.
For test [3], the system named is CCRF-CEM. Put plainly: Cytotoxicity evaluated against CEM tumor cell lines; Significant activity. The test is classed as functional, cell-based. Conditions: Homo sapiens.
For test [4], the system named is MOLT-4. Put plainly: Cytotoxicity was evaluated against Molt-4 tumor cell lines. The test is classed as functional, cell-based. The following applies: Homo sapiens.
Test [5] has as its system HL-60. Put plainly: Cytotoxicity evaluated against HL-60 tumor cell lines; Significant activity. The class given is functional, cell-based. The following applies: Homo sapiens.
Test [6] relates to A549. Put plainly: Cytotoxicity evaluated against A549 tumor cell lines; significant activity. The class given is functional, cell-based. The following applies: Homo sapiens.
Test [7] relates to NCI-H292. Put plainly: Cytotoxicity evaluated against H292 tumor cell lines; Significant activity. The test is classed as functional, cell-based. Conditions: Homo sapiens.
Test [8] concerns MCF7. Put plainly: Cytotoxicity evaluated against MCF-7 tumor cell lines; Significant activity. The test is classed as functional, cell-based. Conditions: Homo sapiens.
The subject of test [9] is WI-38. Put plainly: Cytotoxicity evaluated against WI38 tumor cell lines; Significant activity. The class given is functional, cell-based. The following applies: Homo sapiens.
The test system of test [10] is B16. Put plainly: Cytotoxicity was evaluated against B16 tumor cell lines; Significant activity. Conditions: Mus musculus. The class given is functional, cell-based.
Test [11] deals with L1210. Put plainly: Cytotoxicity evaluated against L1210 tumor cell lines; Significant activity. The class given is functional, cell-based. The following applies: Mus musculus.
For another test, the system named is Tumor cell line. Put plainly: In vivo testing against tumor cells that were placed in the polyvinylidene fluoride (PVDF) hollow fibers of capsules and then implanted in to mice intraperitoneally or subcutaneously. The test is classed as functional, Mus musculus.
Test [12] has as its system NCI-H596. Put plainly: Cytotoxicity evaluated against H596 tumor cell lines; Significant activity. The class given is functional, cell-based. Conditions: Homo sapiens.
A further test deals with Jurkat. Put plainly: In vitro test for antitumor activity against human Jurkat cell line using a formazan dye (MTT) conversion assay. The test is classed as functional, cell-based.
Test [13] concerns NIH3T3. Put plainly: Cytotoxicity evaluated against NIH3T3 tumor cell lines; Significant activity. The following applies: Mus musculus. The test is classed as functional, cell-based.
In test [14] the test system is WI-38. Put plainly: Cytotoxicity was evaluated against WI38 tumor cell lines; Significant activity. The class given is functional, cell-based. Conditions: Homo sapiens.
Test [15] has as its system MCF7. Put plainly: Cytotoxicity was evaluated against MCF-7 tumor cell lines; Slightly active. The class given is functional, cell-based. Conditions: Homo sapiens.
Test [16] has as its system NCI-H292. Put plainly: Cytotoxicity was evaluated against H292 tumor cell lines; Slightly active. The class given is functional, cell-based. The following applies: Homo sapiens.
Test [17] deals with B16. Put plainly: Cytotoxicity was evaluated against B16 tumor cell lines; Slightly active. The test is classed as functional, cell-based. The following applies: Mus musculus.
In test [18] the test system is WI-38. Put plainly: Cytotoxicity was evaluated against WI38 tumor cell lines; Slightly active. The test is classed as functional, cell-based. The following applies: Homo sapiens.
In test [19] the test system is HL-60. Put plainly: Cytotoxicity was evaluated against HL-60 tumor cell lines; Slightly active. The test is classed as functional, cell-based. Conditions: Homo sapiens.
Test [20] deals with L1210. Put plainly: Cytotoxicity was evaluated against L1210 tumor cell lines; Slightly active. The test is classed as functional, cell-based. The following applies: Mus musculus.
In test [21] the test system is A549. Put plainly: Cytotoxicity was evaluated against A549 tumor cell lines; Slightly active. Conditions: Homo sapiens. The test is classed as functional, cell-based.
Test [22] deals with CCRF-CEM. Put plainly: Cytotoxicity was evaluated against CEM tumor cell lines; Slightly active. The class given is functional, cell-based. Conditions: Homo sapiens.
For test [23], the system named is NIH3T3. Put plainly: Cytotoxicity was evaluated against NIH3T3 tumor cell lines; Slightly active. Conditions: Mus musculus. The class given is functional, cell-based.
The test system of test [24] is NCI-H596. Put plainly: Cytotoxicity was evaluated against H596 tumor cell lines; Slightly active. Conditions: Homo sapiens. The test is classed as functional, cell-based.
For test [25], the system named is K562. Put plainly: Cytotoxicity was evaluated against K562 tumor cell lines; Slightly active. The test is classed as functional, cell-based. Conditions: Homo sapiens.
The subject of test [26] is WIL2. Put plainly: Cytotoxicity was evaluated against WIL2 tumor cell lines; Slightly active. The test is classed as functional, cell-based. The following applies: Homo sapiens.
Test [27] has as its system MOLT-4. Put plainly: Cytotoxicity was evaluated against Molt-4 tumor cell lines; Slightly active. The class given is functional, cell-based. The following applies: Homo sapiens.

The IC50 is the concentration at which inhibition is half-maximal. Lower therefore signals greater potency in that assay. As for `COc1cc2c(c(N)c1OC)C(=O)/C(=C/c1cc(C)c(O)c(C)c1)C2`, the Cytotoxicity result in the test on K562 [1], in the test with WIL2 [2], in the test on CCRF-CEM [3], in the test with MOLT-4 [4], in the test with HL-60 [5] and with A549 [6] was “Significant activity” throughout. Also, the Cytotoxicity entry in the test with NCI-H292 [7], in the test on MCF7 [8], in the test with WI-38 [9], in the test on B16 [10], in the test with L1210 [11] and in the test with NCI-H596 [12] was “Significant activity” in each case. Moreover, the Cytotoxicity entry with NIH3T3 [13] is “Significant activity”. Further, the “IP+SC score” value in the test with Tumor cell line was above 20. For the same molecule, it took 0.004 µM to reach half-maximal inhibition in the test with Jurkat (IC50).

As to `COc1cc(/C=C2\Cc3cc(OC)c(OC)cc3C2=O)cc(OC)c1`, the Cytotoxicity result in the test on K562 [1], in the test on WIL2 [2], in the test with CCRF-CEM [3], in the test with MOLT-4 [4], in the test with HL-60 [5] and with A549 [6] was “Significant activity” in each case. For the same molecule, the Cytotoxicity result in the test with NCI-H292 [7], in the test with MCF7 [8], in the test with WI-38 [9], in the test with B16 [10], with L1210 [11] and with NCI-H596 [12] was “Significant activity” throughout. The Cytotoxicity entry in the test on NIH3T3 [13] is “Significant activity”. Further, the “IP+SC score” value in the test on Tumor cell line is given as below 20. The half-inhibitory concentration (IC50) in the test on Jurkat worked out at 3 µM.

For the molecule `COc1cccc(/C=C2\CCc3cc(OC)c(OC)cc3C2=O)c1`, the Cytotoxicity entry in the test on K562 [1], in the test with WIL2 [2], in the test on CCRF-CEM [3], in the test with MOLT-4 [4], in the test with WI-38 [14] and in the test with HL-60 [5] was “Significant activity” each time. Moreover, the Cytotoxicity result with A549 [6], in the test with NCI-H292 [7], with MCF7 [8], in the test on B16 [10], in the test with L1210 [11] and with NCI-H596 [12] was “Significant activity” each time. Besides, the Cytotoxicity result with NIH3T3 [13] is “Significant activity”. The same molecule registered an IC50 with Jurkat of 5 µM.

Take `COc1cc2c(cc1OC)C(=O)/C(=C/c1cc(Cl)cc(Cl)c1)C2`: the Cytotoxicity result in the test on K562 [1], with WIL2 [2], in the test with CCRF-CEM [3], with MOLT-4 [4], in the test with HL-60 [5] and in the test on A549 [6] was “Significant activity” in each case. For the same molecule, the Cytotoxicity entry with NCI-H292 [7], in the test on MCF7 [8], in the test on WI-38 [9], in the test on B16 [10], in the test with L1210 [11] and in the test on NCI-H596 [12] was “Significant activity” each time. Also, the Cytotoxicity result with NIH3T3 [13] is “Significant activity”. For the same molecule, in the test with Tumor cell line, the “IP+SC score” value is reported as below 20. This molecule also returned a 50% inhibitory concentration (IC50) in the test with Jurkat of 2 µM.

As to `COc1cc2c(cc1OC)C(=O)/C(=C/c1cc(C)c(O)c(C)c1)C2`, the Cytotoxicity entry in the test on K562 [1], with WIL2 [2], in the test with CCRF-CEM [3], in the test on MOLT-4 [4], in the test on HL-60 [5] and with A549 [6] was “Significant activity” each time. Moreover, the Cytotoxicity result in the test with NCI-H292 [7], in the test with MCF7 [8], with WI-38 [9], in the test with B16 [10], in the test with L1210 [11] and with NCI-H596 [12] was “Significant activity” each time. For the same molecule, the Cytotoxicity result in the test on NIH3T3 [13] was “Significant activity”. For the same molecule, in the test with Tumor cell line, the “IP+SC score” value was above 20. The same molecule came in with an IC50 in the test on Jurkat of 0.006 µM.

Regarding `COc1cc2c(c(N)c1O)C/C(=C\c1cc(C)c(O)c(C)c1)C2=O`, the Cytotoxicity entry in the test on MCF7 [15], in the test on NCI-H292 [16], in the test with B16 [17], with WI-38 [18], in the test on HL-60 [19] and in the test with L1210 [20] was “Weak activity” each time. Further, the Cytotoxicity entry with A549 [21], with CCRF-CEM [22], in the test with NIH3T3 [23], in the test on NCI-H596 [24], in the test with K562 [25] and in the test on WIL2 [26] was “Weak activity” in each case. In addition, the Cytotoxicity entry with MOLT-4 [27] was “Weak activity”. Besides, it took 30 µM to reach half-maximal inhibition with Jurkat (IC50).

Turning to `COc1cc2c(cc1OC)C(=O)/C(=C/c1cc(C)cc(C)c1)C2`, the Cytotoxicity result in the test on K562 [1], in the test on WIL2 [2], in the test on CCRF-CEM [3], in the test with MOLT-4 [4], in the test with HL-60 [5] and with A549 [6] was “Significant activity” each time. Besides, the Cytotoxicity entry in the test with NCI-H292 [7], in the test with MCF7 [8], in the test with WI-38 [9], with B16 [10], in the test with L1210 [11] and with NCI-H596 [12] was “Significant activity” each time. Moreover, the Cytotoxicity entry in the test on NIH3T3 [13] is “Significant activity”. Also, in the test with Tumor cell line, the “IP+SC score” value was below 20. The molecule also returned an IC50 in the test with Jurkat of 0.08 µM.

For the molecule `COc1cc2c(c([N+](=O)[O-])c1O)C/C(=C\c1cc(C)c(O)c(C)c1)C2=O`, the Cytotoxicity entry in the test with K562 [1], in the test with WIL2 [2], with CCRF-CEM [3], with MOLT-4 [4], in the test with WI-38 [14] and with HL-60 [5] was “Significant activity” throughout. Further, the Cytotoxicity entry in the test with A549 [6], in the test on NCI-H292 [7], with MCF7 [8], with B16 [10], in the test on L1210 [11] and with NCI-H596 [12] was “Significant activity” each time. The Cytotoxicity entry in the test on NIH3T3 [13] is “Significant activity”. Moreover, in the test with Jurkat, inhibition was half-maximal at 9.3 µM (IC50).

`COc1cc2c(cc1OC)C(=O)/C(=C/c1cc(C)c([N+](=O)[O-])c(C)c1)C2`: the Cytotoxicity entry in the test with MCF7 [15], in the test on NCI-H292 [16], in the test on B16 [17], in the test on WI-38 [18], with HL-60 [19] and in the test on L1210 [20] was “Weak activity” each time. Also, the Cytotoxicity entry in the test on A549 [21], with CCRF-CEM [22], with NIH3T3 [23], in the test on NCI-H596 [24], in the test on K562 [25] and with WIL2 [26] was “Weak activity” in each case. In the test with MOLT-4 [27], the Cytotoxicity entry was “Weak activity”. The half-maximal inhibitory concentration (IC50) in the test with Jurkat came out at 25 µM.

As for `COc1cc2c(cc1OC)C(=O)/C(=C/c1cc(C)c(OC(=O)OCC(C)C)c(C)c1)C2`, the Cytotoxicity entry with MCF7 [15], in the test with NCI-H292 [16], in the test on B16 [17], in the test with WI-38 [18], in the test with HL-60 [19] and in the test on L1210 [20] was “Weak activity” each time. The Cytotoxicity entry with A549 [21], with CCRF-CEM [22], in the test on NIH3T3 [23], in the test on NCI-H596 [24], with K562 [25] and with WIL2 [26] was “Weak activity” in each case. Besides, the Cytotoxicity entry in the test with MOLT-4 [27] is “Weak activity”. The molecule further displayed a half-inhibitory concentration (IC50) with Jurkat of 21.5 µM.
